In ChEMBL document CHEMBL4840357, “Functionalized Dioxonaphthoimidazoliums: A Redox Cycling Chemotype with Potent Bactericidal Activities against Mycobacterium tuberculosis” (J Med Chem, 2021):
Active and inactive are the calls of the source. The rule behind the calls is not given here.

Key:
[1] = system: Mycobacterium tuberculosis variant bovis BCG; experiment: Bactericidal activity against Mycobacterium bovis BCG ATCC 35734 incubated for 5 days by broth dilution method; assay type: functional; conditions: ATCC 35734, 120 h, time 5 day, read-out: MBC99.9
[2] = system: Mycobacterium tuberculosis variant bovis BCG; experiment: Ratio of MIC for antimycobacterial activity against Mycobacterium bovis BCG ATCC 35734 in absence of glycerol to MIC for antimycobacterial activity against Mycobacterium bovis BCG ATCC 35734 in presence of glycerol; assay type: functional
[3] = system: Mycobacterium tuberculosis variant bovis BCG; experiment: Bactericidal activity against Mycobacterium bovis BCG ATCC 35734 at 0.5 to 1 times MIC90 incubated for 5 days in presence of N-acetylcysteine; assay type: functional, organism-based; conditions: time 5.0 day
[4] = system: Mycobacterium tuberculosis variant bovis BCG; experiment: Induction of oxidative stress Mycobacterium bovis BCG-pfurA-RFP ATCC 35734 assessed as activation of pfurA after 24 hrs by fluorescence assay; assay type: functional, organism-based
Cell membrane [5] = experiment: Induction of membrane permeabilization in Mycobacterium bovis BCG ATCC 35734 at 4 times MIC after 8 hrs by SYTO9 and PI staining based fluorescence assay; assay type: functional, subcellular; conditions: Mycobacterium tuberculosis variant bovis BCG
[6] = system: Mycobacterium tuberculosis variant bovis BCG; experiment: Antimycobacterial activity against Mycobacterium bovis BCG ATCC 35734 carrying katG loss-of-function mutant assessed fold reduction in MIC at 1 to 2 times of MIC90 incubated for 5 days; assay type: functional; conditions: time 5 day
[7] = system: Mycobacterium tuberculosis variant bovis BCG; experiment: Bactericidal activity against Mycobacterium bovis BCG ATCC 35734 assessed as reduction in colony forming count at 4 times MIC measured over 28 days by time-kill assay; assay type: functional, organism-based; conditions: time 28.0 day
[8] = system: Mycobacterium tuberculosis variant bovis BCG; experiment: Bactericidal activity against Mycobacterium bovis BCG ATCC 35734 assessed as fold reduction in viability at 4 times MIC measured over 14 days by time-kill assay; assay type: functional; conditions: time 14 day
Cell membrane [9] = experiment: Induction of cell envelope stress in Mycobacterium bovis BCG ATCC 35734 expressing piniBAC RFP at 100 times MIC90 after 24 hrs by fluorescence analysis; assay type: functional, subcellular; conditions: Mycobacterium tuberculosis variant bovis BCG
Cell membrane [10] = experiment: Induction of cell membrane depolarization in Mycobacterium bovis BCG ATCC 35734 at 4 times MIC after 8 hrs by DiOC2 dye based flourescence assay; assay type: functional, subcellular; conditions: Mycobacterium tuberculosis variant bovis BCG
[11] = system: Mycobacterium tuberculosis variant bovis BCG; experiment: Bactericidal activity against Mycobacterium bovis BCG ATCC 35734 assessed as fold reduction in viability at 40 times MIC90 preincubated for 20 days under oxygen deprived condition followed by compound addition and measured after 5 days; assay type: functional; conditions: time 5 day
[12] = system: Mycobacterium tuberculosis variant bovis BCG; experiment: Bactericidal activity against Mycobacterium bovis BCG ATCC 35734 at 0.5 to 1 times MIC90 incubated for 5 days in presence of thiourea; assay type: functional, organism-based; conditions: time 5.0 day
[13] = system: Mycobacterium tuberculosis H37Rv; experiment: Activation of Mycobacterium tuberculosis NDH-2 overexpressed in mc24517 inverted membrane vesicles assessed as increase in NADH oxidation; assay type: cell membranes; conditions: Membrane vesicle, filed as activator
[14] = system: Mycobacterium tuberculosis variant bovis BCG; experiment: Induction of ROS generation in Mycobacterium bovis BCG ATCC 35734 after 90 mins by cellrox-green reagent based assay; assay type: functional, organism-based
[15] = system: Mycobacterium tuberculosis variant bovis BCG; experiment: Bactericidal activity against Mycobacterium bovis BCG ATCC 35734 assessed as reduction in colony forming unit at 8 times MIC measured after 21 days by time-kill assay; assay type: functional, organism-based; conditions: time 21.0 day
[16] = system: Mycobacterium tuberculosis variant bovis BCG; experiment: Antimycobacterial activity against Mycobacterium bovis BCG ATCC 35734 carrying katG loss-of-function mutant assessed fold reduction in MIC at 1 to 2 times of MIC90 incubated for 5 days under solid agar medium; assay type: functional, organism-based; conditions: time 5.0 day
[17] = system: Mycobacterium tuberculosis variant bovis BCG; experiment: Induction of ROS generation in Mycobacterium bovis BCG ATCC 35734 at 2 times of MIC90 measured upto 24 hrs by cellrox-green reagent based assay; assay type: functional, organism-based; conditions: time hrs <=24
[18] = system: Mycobacterium tuberculosis variant bovis BCG; experiment: Antimycobacterial activity against Mycobacterium bovis BCG ATCC 35734 carrying katG loss-of-function mutant assessed fold reduction in MIC at 1 to 2 times of MIC90 incubated for 5 days under liquid medium; assay type: functional, organism-based; conditions: time 5.0 day
[19] = system: Mycobacterium tuberculosis variant bovis BCG; experiment: Bactericidal activity against Mycobacterium bovis BCG ATCC 35734 at 0.5 to 1 times MIC90 incubated for 5 days in presence of TEMPO; assay type: functional, organism-based; conditions: time 5.0 day
[20] = system: Mycobacterium tuberculosis variant bovis BCG; experiment: Bactericidal activity against Mycobacterium bovis BCG ATCC 35734 assessed as reduction in colony forming unit at 0.5 to 1 times MIC90 incubated for 5 days; assay type: functional, organism-based; conditions: time 5.0 day
[21] = system: Mycobacterium tuberculosis variant bovis BCG; experiment: Antimycobacterial activity against Mycobacterium bovis BCG ATCC 35734 incubated for 5 days by broth dilution method; assay type: functional; conditions: ATCC 35734, 120 h, time 5 day

Structure (SMILES)	MBC [1]	Ratio [2]	Activity [4]	Activity (Cell membrane [5])	fold change (FC) [6]	Activity [7]	fold change (FC) [8]	Activity (Cell membrane [9])	Activity (Cell membrane [10])	fold change (FC) [11]	Activity [14]	MIC50 [21]	MIC90 [21]	also measured
CCCCCCCCn1c2c([n+](CCCC)c1C)C(=O)c1ccccc1C2=O.[Br-]	0.64 µM	< 2	Dose-Dependent Effect	inactive	2	Active	100000	inactive	inactive	10	Dose-Dependent Effect	0.15 µM	0.26 µM	Activity [3]: Active; Activity [12]: Active; fold change (FC) [13]: 4.7; Activity [15]: Active; Activity [16]: Active; Activity [17]: Active; Activity [18]: Active; Activity [19]: Active; Activity [20]: Active
CCCCCCCn1c2c([n+](CCCCC)c1C)C(=O)c1ccccc1C2=O.[Br-]	0.64 µM	< 2	Dose-Dependent Effect	inactive	2	Active	100000	inactive	inactive	10	Dose-Dependent Effect	0.16 µM	0.27 µM	–
